2 compounds from patent publication US20250082716A1, “REPRESSED ANG 1-7 IN COVID-19 IS INVERSELY ASSOCIATED WITH INFLAMMATION AND COAGULATION” (priority 2021, published 2025) can be followed below.

Read-outs that look alike come from different tables or passages of the source.

This test relates to SARS-CoV-2 South African variant. In kind it is in vivo, LVG Golden Syrian male hamsters.

As to “Asp-Arg-Val-Tyr-Ile-His-Pro (DRVYIHP; printed: Asp-Arg-Val-Tyr-Ile-His-Pro) [angiotensin 1-7]”, the “daily body weights expressed as the percentage of starting body weight” value (pump implant delivering angiotensin 1-7 at 12 mg/kg/day, started the day after inoculation with 500,000 PFU, n=3) was “continued to gain weight through the entire course of infection”.

Take `CCNC(=O)NS(=O)(=O)c1sc(CC(C)C)cc1-c1ccc(Cn2c(-c3ccccc3)nc(OC)c2C=O)cc1` [AVE0991, N-(Ethylcarbamoyl)-3-(4-((5-formyl-4-methoxy-2-phenyl-1H-imidazol-1-YL)methyl)phenyl)-5-isobutylthiophene-2-sulfonamide]: under “hamster, in vivo”, the “daily body weights expressed as the percentage of starting body weight” value was “continued to gain weight through the entire course of infection”.
